The source of these data is US11046675B2, “Substituted isoquionline derivatives as immunomudulators” (Bristol-Myers Squibb Company, priority 2017, dated 2021).

Where two headings read alike, the source gives them in different places.

The target of this experiment is PD-1/PD-L1 (Homo sapiens (Human), UniProt Q9NZQ7). Put plainly: PD-1/PD-L1 Homogenous Time-Resolved Fluorescence (HTRF) binding assay. The conditions noted are these: PD-L1-His 10 nM, PD-1-Ig 20 nM, read-out: IC50 (μM) (Range or value). The source says: The ability of the compounds of formula (I) to bind to PD-L1 was investigated using a PD-1/PD-L1 Homogenous Time-Resolved Fluorescence (HTRF) binding assay.
Sequence of PD-1/PD-L1 (Q9NZQ7 other isoform, or with tags, fused parts or gaps): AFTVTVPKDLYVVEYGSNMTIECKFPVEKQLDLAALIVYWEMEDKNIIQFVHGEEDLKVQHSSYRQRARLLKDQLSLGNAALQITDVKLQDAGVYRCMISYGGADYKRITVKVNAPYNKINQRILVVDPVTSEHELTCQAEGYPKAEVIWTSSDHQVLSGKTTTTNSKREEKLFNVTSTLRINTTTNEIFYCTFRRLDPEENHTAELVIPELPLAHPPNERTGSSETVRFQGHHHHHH
Homogenous Time-Resolved Fluorescence (HTRF) Binding Assay
The interaction of PD-1 and PD-L1 can be assessed using soluble, purified preparations of the extracellular domains of the two proteins. The PD-1 and PD-L1 protein extracellular domains were expressed as fusion proteins with detection tags, for PD-1, the tag was the Fc portion of Immunoglobulin (PD-1-Ig) and for PD-L1 it was the 6 histidine motif (PD-L1-His). All binding studies were performed in an HTRF assay buffer consisting of dPBS supplemented with 0.1% […] bovine serum albumin and 0.05% (v/v) Tween-20. For the h/PD-L1-His binding assay, inhibitors were pre-incubated with PD-L1-His (10 nM final) for 15m in 4 μl of assay buffer, followed by addition of PD-1-Ig (20 nM final) in 1 μl of assay buffer and further incubation for 15 m. HTRF detection was achieved using europium crypate-labeled anti-Ig (1 nM final) and allophycocyanin (APC) labeled anti-His (20 nM final). Antibodies were diluted in HTRF detection buffer and 5 μl was dispensed on top of the binding reaction. The reaction mixture was allowed to equilibrate for 60 minutes and the resulting signal (665 nm/620 nm ratio) was obtained using an EnVision fluorometer. Additional binding assays were established between the human proteins PD-1-Ig/PD-L2-His (20 & 2 nM, respectively) and CD80-His/PD-L1-Ig (100 & 10 nM, respectively).
Recombinant Proteins: Human PD-1 (25-167) with a C-terminal human Fc domain of immunoglobulin G (Ig) epitope tag [hPD-1 (25-167)-3S-IG] and human PD-L1 (18-239) with a C-terminal His epitope tag [hPD-L1(18-239)-TVMV-His] were expressed in HEK293T cells and purified sequentially by ProteinA affinity chromatography and size exclusion chromatography. Human PD-L2-His and CD80-His was obtained through commercial sources.
Background: In TR-FRET formats the signal depends on donor and acceptor labels being close together.

As to `Cc1c(COc2cc3c(c(OCc4cncc(C#N)c4)c2)CN(CC(=O)O)CC3)cccc1-c1ccc2c(c1)OCCO2` [Example 1001, 2-(8-((5-cyanopyridin-3-yl)methoxy)-6-((3-(2,3-dihydrobenzo[b][1,4]dioxin-6-yl)-2-methylbenzyl)-oxy)-3,4-dihydroisoquinolin-2(1H)-yl)acetic acid], the IC50 (in general, the concentration at which inhibition is half-maximal) (reported as range class) was 0.002 to 0.015 µM.
As for `Cc1c(COc2cc(OCc3cncc(C#N)c3)cc3c2CN(CC(=O)O)CC3)cccc1-c1ccc2c(c1)OCCO2` [Example 1002, 2-(6-((5-cyanopyridin-3-yl)methoxy)-8-((3-(2,3-dihydrobenzo[b][1,4]-dioxin-6-yl)-2-methylbenzyl)oxy)-3,4-dihydroiso-quinolin-2(1H)-yl)acetic acid], the IC50 (reported as range class) was in the range of 0.051 to 1.5 µM.
With `Cc1c(COc2cc(O)c3c(c2)CCN(CC(=O)O)C3)cccc1-c1ccc2c(c1)OCCO2` [Example 1003, 2-(6-((3-(2,3-dihydrobenzo[b][1,4]dioxin-6-yl)-2-methylbenzyl)oxy)-8-hydroxy-3,4-dihydroisoquinolin-2(1H)-yl)acetic acid], the IC50 (reported as range class) was in the range of 0.051 to 1.5 µM.
Regarding `Cc1c(COc2ccc3c(c2)CN[C@@H](C(=O)O)C3)cccc1-c1ccc2c(c1)OCCO2` [Example 1004, (R)-7-((3-(2,3-dihydrobenzo[b][1,4]dioxin-6-yl)-2-methylbenzyl)oxy)-1,2,3,4-tetrahydroisoquinoline-3-carboxylic acid], the IC50 (reported as range class) was in the range of 1.51 to 10 µM.
Consider `Cc1c(COc2ccc3c(c2)CN[C@H](C(=O)O)C3)cccc1-c1ccc2c(c1)OCCO2` [Example 1005, (S)-7-((3-(2,3-dihydrobenzo[b][1,4]dioxin-6-yl)-2-methylbenzyl)oxy)-1,2,3,4-tetrahydroisoquinoline-3-carboxylic acid], for which the IC50 (reported as value) is over 10 µM.
As for `Cc1c(COc2cc(OCc3cncc(C#N)c3)c3c(c2Cl)CCN(CC(=O)O)C3)cccc1-c1cccc(OCCCN2CC[C@@H](O)C2)c1C` [Example 1006, (R)-2-(5-chloro-8-((5-cyanopyridin-3-yl)methoxy)-6-((3′-(3-(3-hydroxypyrrolidin-1-yl)propoxy)-2,2′-dimethyl-[1,1′-biphenyl]-3-yl)methoxy)-3,4-dihydroisoquinolin-2(1H)-yl)acetic acid], for the setting “reported as value”, the IC50 stood at 0.002 µM.
For the molecule `COC(=O)c1cncc(COc2cc(OCc3cccc(-c4cccc(OCCCN5CC[C@@H](O)C5)c4C)c3C)c(Cl)c3c2CN(CC(=O)O)CC3)c1` [Example 1007, (R)-2-(5-chloro-6-((3′-(3-(3-hydroxypyrrolidin-1-yl)propoxy)-2,2′-dimethyl-[1,1′-biphenyl]-3-yl)methoxy)-8-((5-(methoxycarbonyl)pyridin-3-yl)methoxy)-3,4-dihydro-isoquinolin-2(1H)-yl)acetic acid], the IC50 (reported as range class) lay in the range of 0.016 to 0.05 µM.
`COC(=O)CN1CCc2c(Cl)c(OCc3cccc(-c4cccc(OCCCN5CC[C@@H](O)C5)c4C)c3C)cc(OCc3cncc(C(=O)OC)c3)c2C1` [Example 1008, methyl (R)-5-(((5-chloro-6-((3′-(3-(3-hydroxypyrrolidin-1-yl)propoxy)-2,2′-dimethyl-[1,1′-biphenyl]-3-yl)methoxy)-2-(2-methoxy-2-oxoethyl)-1,2,3,4-tetrahydroisoquinolin-8-yl)oxy)methyl)nicotinate]: where the note is “reported as value”, the IC50 was over 10 µM.
